Experimental data from patent US20070099983A1, “Aminocyclohexyl ether compounds and uses thereof” (Cardiome Pharma Corp., priority 2003, published 2007).
Structures can show the parent of a compound that is named as a salt.

System: conscious rats
Assay: Determination of CNS toxicity: convulsions in conscious rats on increasing i.v. infusion
Assay type: in vivo
Details: rat, in vivo; for convulsion dose: iv

Row | SMILES | cum conv dose | convulsion dose
1 | Cl.O[C@@H]1CCN(C2CCCC[C@@H]2OCCc2cc3ccccc3o2)C1 (stereo partly drawn) [Compound 29, (3R)-1-{(1R,2R)/(1S,2S)-2-[2-(1-benzofuran-2-yl)ethoxy]-cyclohexyl}-pyrrolidin-3-ol hydrochloride] | 65.67 µmol/kg | 10.67 µmol/kg/min
2 | Cl.OC1CCN(C2CCCC[C@@H]2OCCn2ccc3ccccc32)C1 (stereo partly drawn) [Compound 28, (3R)/(3S)-1-{(1R,2R)/(1S,2S)-2-[2-(1H-indol-1-yl)ethoxy]cyclohexyl}pyrrolidin-3-ol hydrochloride] | 113 µmol/kg | 16 µmol/kg/min
3 | COc1ccc(CCOC2CCCC[C@H]2N2CCC(F)C2)cc1OC.Cl (stereo partly drawn) [Compound 14, (3R)/(3S)-1-{(1R,2R)/(1S,2S)-2-[2-(3,4-dimethoxyphenyl)-ethoxy]cyclohexyl}-3-fluoropyrrolidine hydrochloride] | 63.33 µmol/kg | 10.67 µmol/kg/min
4 | COc1ccc(CCO[C@H]2CCCCC2N2CC[C@H](OCc3ccccc3)C2)cc1OC.Cl (stereo partly drawn) [Compound 11, (3S)-3-benzyloxy-1-{(1R,2R)/(1S,2S)-2-[2-(3,4-dimethoxyphenyl)-ethoxy]cyclohexyl}-pyrrolidine hydrochloride] | 38.13 µmol/kg | 8 µmol/kg/min
5 | COc1ccc(CCO[C@H]2CCCCC2N2CCCC2)cc1OC.Cl (stereo partly drawn) [Compound 10, 1-{(1R,2R)/(1S,2S)-2-[2-(3,4-dimethoxyphenyl)-ethoxy]cyclohexyl}-pyrrolidine hydrochloride] | 118 µmol/kg | 21.33 µmol/kg/min
6 | Cl.Clc1cccc(Cl)c1CCOC1CCCC[C@H]1N1CCSC1 (stereo partly drawn) [Compound 48, (1R,2R)/(1S,2S)-2-(3-thiazolidinyl)-1-(2,6-dichlorophenethoxy) cyclohexane monohydrochloride] | 331 µmol/kg | 43 µmol/kg/min
7 | Cl.O[C@@H]1CCN(C2CCCC[C@@H]2OCCc2ccccc2C(F)(F)F)C1 (stereo partly drawn) [Compound 27, (3R)-1-{(1R,2R)/(1S,2S)-2-[2-(2-Trifluoromethyl-phenyl)ethoxy]-cyclohexyl}-pyrrolidin-3-ol hydrochloride] | 101.93 µmol/kg | 16 µmol/kg/min
8 | Clc1ccc(CCO[C@H]2CCCCC2N2CCOCC2)cc1Cl (stereo partly drawn) [Compound 40, (1R,2R)/(1S,2S)-2-(4-morpholinyl)-1-(3,4-dichlorophenethoxy) cyclohexane] | 118 µmol/kg | 16 µmol/kg/min
9 | Cl.OC1CCN(C2CCCC[C@@H]2OCCc2c(Cl)cccc2Cl)C1 (stereo partly drawn) [Compound 23, (3R)/(3S)-1-{(1R,2R)/(1S,2S)-2-[2-(2,6-dichlorophenyl)-ethoxy]cyclohexyl}-pyrrolidin-3-ol hydrochloride] | 65 µmol/kg | 8 µmol/kg/min
10 | COc1ccc(CCOC2CCCC[C@H]2N2CC=CC2)cc1OC.Cl (stereo partly drawn) [Compound 16, 1-{(1R,2R)/(1S,2S)-2-[2-(3,4-dimethoxyphenyl)-ethoxy]cyclohexyl}-2,5-dihydro-1H-pyrrole hydrochloride] | 44.4 µmol/kg | 8 µmol/kg/min
11 | COc1ccc(CCO[C@H]2CCCCC2N2CC[C@H](O)C2)cc1OC.Cl (stereo partly drawn) [Compound 5, (1R,2R)/(1S,2S)-2-[(3S)-Hydroxypyrrolidinyl]-1-(3,4-dimethoxyphenethoxy)-cyclohexane monohydrochloride] | 438 µmol/kg | 64 µmol/kg/min
12 | c1ccc2c(CCO[C@H]3CCCCC3N3CCOCC3)csc2c1 (stereo partly shown) [Compound 36] | 65 µmol/kg | 8 µmol/kg/min
13 | Cl.Clc1cccc(Cl)c1COC1CCCC[C@H]1N1CCOCC1 (stereo partly drawn) [Compound 44, (1R,2R)/(1S,2S)-2-(4-morpholinyl)-1-[(2,6-dichlorophenyl)methoxy]cyclohexane monohydrochloride] | 97 µmol/kg | 16 µmol/kg/min
14 | COc1ccc(CCO[C@H]2CCCCC2N2CC[C@@H](OCc3ccccc3)C2)cc1OC.Cl (stereo partly drawn) [Compound 12, (3R)-3-benzyloxy-1-{(1R,2R)/(1S,2S)-2-[2-(3,4-dimethoxyphenyl)-ethoxy]cyclohexyl}-pyrrolidine hydrochloride] | 51.1 µmol/kg | 8 µmol/kg/min
15 | Cl.FC(F)(F)c1ccccc1CCO[C@H]1CCCC[C@H]1N1CCOCC1 (racemic) [Compound 42, (1R,2S)/(1S,2R)-2-(4-morpholinyl)-1-[(2-trifluoromethyl)-phenethoxy]-cyclohexane monohydrochloride] | 102 µmol/kg | 16 µmol/kg/min
16 | COc1ccc(CCOC2CCCC[C@H]2N2CCC(=O)C2)cc1OC.Cl (stereo partly drawn) [Compound 18, 1-{(1R,2R)/(1S,2S)-2-[2-(3,4-dimethoxyphenyl)-ethoxy]cyclohexyl}-pyrrolidin-3-one hydrochloride] | 235 µmol/kg | 32 µmol/kg/min
17 | COc1ccc(CCO[C@H]2CCCC[C@@H]2N2CC[C@@H](O)C2)cc1OC.Cl [Compound 2, (1S,2S)-2-[(3R)-Hydroxypyrrolidinyl]-1-(3,4-dimethoxyphenethoxy)cyclohexane monohydrochloride] | 500.67 µmol/kg | 64 µmol/kg/min

Row | SMILES | cum conv dose | convulsion dose
18 | Brc1ccccc1CCO[C@H]1CCCCC1N1CCOCC1 (stereo partly drawn) [Compound 39, (1R,2R)/(1S,2S)-[2-(4-morpholinyl)-1-(2-bromophenethoxy)]-cyclohexane] | 125 µmol/kg | 16 µmol/kg/min
19 | COc1ccc(CCO[C@H]2CCCCC2N2CCOCC2)cc1OC (stereo partly drawn) [Compound 35, (1R,2R)/(1S,2S)-[2-(4-morpholinyl)-1-(3,4-dimethoxy-phenethoxy)]-cyclohexane] | 113 µmol/kg | 16 µmol/kg/min
20 | c1ccc2cc(CCO[C@H]3CCCCC3N3CCOCC3)ccc2c1 (stereo partly drawn) [Compound 30, (1R,2R)/(1S,2S)-[2-(4-morpholinyl)-1-(2-naphthenethoxy)]-cyclohexane] | 85 µmol/kg | 13.3 µmol/kg/min
21 | COc1ccc(CCO[C@H]2CCCCC2N2CCC(O)C2)cc1OC (stereo partly drawn) [Compound 3, (1R,2R)/(1S,2S)-2-[(3R)/(3S)-Hydroxypyrrolidinyl]-1-(3,4-dimethoxyphenethoxy)-cyclohexane monohydrochloride] | 502 µmol/kg | 64 µmol/kg/min
22 | CC(=O)OC1CCN([C@@H]2CCCCC2OCCc2cccc3ccccc23)C1.Cl (stereo partly drawn) [Compound 43, (1R,2R)/(1S,2S)-2-(3-acetoxypyrrolidinyl)-1-(1-naphthenethoxy)cyclo hexane monohydrochloride] | 65 µmol/kg | 8 µmol/kg/min
23 | COc1ccc(CCO[C@@H]2CCCC[C@H]2N2CC[C@@H](OC(C)=O)C2)cc1OC.Cl [Compound 17, (3R)-1-{(1R,2R)-2-[2-(3,4-dimethoxyphenyl)-ethoxy]cyclohexyl}-pyrrolidin-3-yl acetate hydrochloride] | 74.3 µmol/kg | 13.33 µmol/kg/min
24 | c1cc(CCO[C@H]2CCCCC2N2CCOCC2)c2ccsc2c1 (stereo partly shown) [Compound 37] | 54 µmol/kg | 8 µmol/kg/min
25 | Cl.OC1CCN(C2CCCC[C@@H]2OCCc2c(Cl)cccc2Cl)C1 (stereo partly drawn) [Compound 46, (1R,2R)/(1S,2S)-2-(3-hydroxypyrrolidinyl)-1-(2,6-dichlorophenethoxy) cyclohexane monohydrochloride] | 65 µmol/kg | –
26 | Cl.OC1CCN(C2CCCC[C@@H]2OCCc2cccc3ccccc23)C1 (stereo partly drawn) [Compound 26, (3R)/(3S)-1-{(1R,2R)/(1S,2S)-2-[2-(1-naphthyl)ethoxy]-cyclohexyl}-pyrrolidin-3-ol hydrochloride] | 67.33 µmol/kg | 8 µmol/kg/min
27 | Brc1cccc(CCO[C@H]2CCCCC2N2CCOCC2)c1 (stereo partly drawn) [Compound 38, (1R,2R)/(1S,2S)-[2-(4-morpholinyl)-1-(3-bromophenethoxy)]-cyclohexane] | 131 µmol/kg | 16 µmol/kg/min
28 | COc1ccc(CCO[C@H]2CCCC[C@@H]2N2CC[C@H](O)C2)cc1OC.Cl [Compound 7, (1S,2S)-2-[(3S)-Hydroxypyrrolidinyl]-1-(3,4-dimethoxyphenethoxy)cyclohexane monohydrochloride] | 451.67 µmol/kg | 64 µmol/kg/min
29 | COc1ccc(CCO[C@H]2CCCCC2N2CC[C@H](OC(C)=O)C2)cc1OC.Cl (stereo partly drawn) [Compound 13, (3S)-1-{(1R,2R)/(1S,2S)-2-[2-(3,4-dimethoxyphenyl)-ethoxy]cyclohexyl}-pyrrolidin-3-yl acetate hydrochloride] | 51.9 µmol/kg | 8 µmol/kg/min
30 | Cl.O=C1CCN([C@@H]2CCCCC2OCc2c(Cl)cccc2Cl)C1 (stereo partly drawn) [Compound 45, (1R,2R)/(1S,2S)-2-(3-ketopyrrolidinyl)-1-[(2,6-dichlorophenyl)methoxy]cyclohexane monohydrochloride] | 214 µmol/kg | 32 µmol/kg/min
31 | Brc1ccc(OCCO[C@H]2CCCCC2N2CCOCC2)cc1 (stereo partly drawn) [Compound 34, (1R,2R)/(1S,2S)-[2-(4-morpholinyl)-1-[2-(4-bromophenoxy)-ethoxy]]cyclohexane] | 83 µmol/kg | 10.7 µmol/kg/min
32 | COc1ccc(CCO[C@H]2CCCCC2N2CC[C@@H](O)C2)cc1OC.Cl (stereo partly drawn) [Compound 4, (1R,2R)/(1S,2S)-2-[(3R)-Hydroxypyrrolidinyl]-1-(3,4-dimethoxyphenethoxy)-cyclohexane monohydrochloride] | 502 µmol/kg | 64 µmol/kg/min
33 | COc1cc(CCCO[C@H]2CCCCC2N2CC[C@@H](O)C2)cc(Cl)c1OC.Cl (stereo partly drawn) [Compound 21, (3R)-1-{(1R,2R)/(1S,2S)-2-[3-(3-chloro-4,5-dimethoxyphenyl)-propoxy]cyclohexyl}pyrrolidin-3-ol hydrochloride] | 90.9 µmol/kg | 13.33 µmol/kg/min
34 | c1ccc2c(CCO[C@H]3CCCCC3N3CCOCC3)cccc2c1 (stereo partly drawn) [Compound 31, (1R,2R)/(1S,2S)-[2-(4-morpholinyl)-1-(1-naphthenethoxy)]-cyclohexane] | 93 µmol/kg | 16 µmol/kg/min
